Experiment [1] has as its system panel of human cancer cell lines. Kind of experiment: Antiproliferative activity, panel of human cancer cell lines (average). The class given is cell-based. Particulars: 72 h; for IC50: wild cell panel. As for the experimental part:
The compounds under investigation were tested on a panel of commercial human cancer cell lines: ovarian endometrioid adenocarcinoma A2780 (ICLC HTL98008), its cisplatin-resistant variant A2780cisR (ECACC 93112517), colon carcinoma HCT 116 (ECACC 91091005), breast invasive ductal carcinoma MCF7 (ECACC 86012803), embryonal carcinoma NTERA-2 clone D1 (also known as NT2/D1, ICLC HTL97025), and lung adenocarcinoma A549 (ICLC HTL03001). Furthermore, a cell line derived from the pleural effusion of a patient with untreated malignant pleural mesothelioma (MPM) was added to the panel, namely, MM98 (sarcomatoid phenotype). Commercial cells were purchased from the European Collection of Authenticated Cell Cultures (ECACC, UK) or the Interlab Cell Line Collection (ICLC, Genoa, Italy), while the MM98 cell line was obtained from the Pathology Unit of the National Hospital of Alessandria (Italy).
The following media were used to grow the cells: RPMI 1640 (for A2780, A2780cisR, NT2/D1, and A549 cells), DMEM (for MCF7 cells), DMEM supplemented with nonessential amino acids (for MM98 cells), and McCoy's 5A (for HCT 116 cells). […]
To assess the growth inhibition of the compounds under investigation, a cell viability test (i.e., the resazurin reduction assay) was used. […] At the end of the treatment (72 h), viability was evaluated with 100 μg·mL^−1 resazurin (Acros Chemicals, France) in a fresh medium for 1 h at 37°C, and the amount of the reduced product, resorufin, was measured by fluorescence (excitation λ = 535 nm, emission λ = 595 nm) with a Tecan Infinite F200Pro plate reader (Tecan, Austria). In each experiment, cells were challenged with drug candidates at different concentrations, and the final data were calculated from at least three replicates of the same experiment performed in triplicate. The fluorescence of 8 wells containing a medium without cells was used as a blank. Fluorescence data were normalized to 100% cell viability for nontreated cells. […]

For the next experiment, the system named is A2780cisR cells. Kind of experiment: Cellular Pt accumulation (accumulation ratio) in A2780cisR cells. The note with it: 4 h CT, 10 μM. The class given is cell-based, human. As for the experimental part:
A2780 and A2780cisR cells were seeded in 10 mm Petri dishes and challenged with complexes under investigation (10 μM) in a complete medium for 4 h. At the end of the exposure, cells were washed three times with PBS, detached from Petri dishes using 0.05% trypsin 1x + 2% EDTA (HyClone, Thermo Fisher), and harvested in a completely fresh medium. An automatic cell counting device (Countess®, Life Technologies) was used to measure the number and mean diameter of each cell necessary to calculate the mean cellular (spherical) volume.
For the analysis of Pt accumulation, cells were transferred to a borosilicate glass tube and centrifuged at 1100 rpm for 5 min at room temperature. […]
The determination of the platinum content was performed by ICP-MS (Thermo Optek X Series 2). […] The instrument settings were optimized to produce the highest platinum sensitivity, and the most abundant isotopes of Pt and In (used as an internal standard) were quantified at m/z 195 and 115, respectively.
The quantity of Pt found in cells and normalized on cell number (cellular Pt accumulation) was expressed as ng of Pt per 10^6 cells. The mean cellular volume, calculated from the actual mean cell diameter measured for each sample (about 12 μm), was used to obtain the volume of 10^6 cells and, finally, the intracellular Pt concentration. […]

One may read the IC50 as the concentration that gives 50% inhibition. Lower therefore signals greater potency in that assay.

For the compound `N.N.[Cl][Pt][Cl]` [Cisplatin, (SP-4-2)-diamminedichloridoplatinum(II)], the IC50 in experiment [1] worked out at 2720 nM. Also, the “Pt accumulation (AR) in A2780cisR compared with A2780” value with A2780cisR cells is given as “much lower amounts of Pt than A2780”.
With `CC(=O)[O][Pt]([OH])([Cl])[Cl].N.N` [Complex 2, (OC-6-44)-acetatodiamminedichloridohydroxidoplatinum(IV)], the “potency, times higher than those of 1 and 3” value in experiment [1] (panel of human cancer cell lines) is given as 10–100 times. Also, the midpoint of inhibition in experiment [1], the IC50, lay at 2910 nM.

These data come from paper PMC9822769, “The Strange Case: The Unsymmetric Cisplatin-Based Pt(IV) Prodrug [Pt(CH3COO)Cl2(NH3)2(OH)] Exhibits Higher Cytotoxic Activity with respect to Its Symmetric Congeners due to Carrier-Mediated Cellular Uptake” (Bioinorganic Chemistry and Applications, 2022).
